Assay results from patent publication EP1073639B1, “QUINOLINE DERIVATIVES” (Active Biotech AB, priority 1998, dated 1999).
Marks after values point to notes of the source that are not given here.

Experiments:
Assay type in all cases: in vivo
Clearance in dogs = details: higher than roquinimex
SJL/N female mice = assay: Acute experimental autoimmune encephalomyelitis (aEAE); details: for % aEAE Inhibition: mice
female rats = assay: Teratogenic effects in the rat (embryotoxicity, external malformations); details: for % malformed foetuses: rat
DBA/1 male mice = assay: Collagen induced arthritis (type II collagen); details: dose 5 mg/kg p.o.; for Mean score day 35: day 35, arthritic score
Procedure: Collagen induced arthritis
DBA/1 male mice between 8 to 10 weeks of age were used for the experiments. On day 0 the mice were immunized intradermally at the base of the tail with bovine type II collagen (100 µg/mouse) in Freund's complete adjuvant. The treatment was given per os daily on days 3 to 7, 10 to 14, 17 to 21, 24 to 28 and 31 to 35. Fifteen days after immunization mice were inspected for signs of arthritis. The animals were inspected three times a week. Every second or third day individual paws of the arthritic animals were scored by a scale from 0-4 (0 = no arthritis, 1 = arthritis in one of the interphalangeal, metatarsophalangeal or intercarpal joints, 2 = two arthritic joints, 3 = three arthritic joints, 4 = as in 3 but with more severe redness and swelling of the paw). The score for each paw was added to give a maximal attainable score of 16 for each mouse.

beagle dogs = assay: Beagle Pain Syndrome (BPS); details: result in words
Procedure: Beagle Pain Syndrome (BPS)
The compounds were administrated intravenously to beagle dogs. The dosage was given for five consecutive days. The dogs were evaluated for clinical and laboratory signs of the pain syndrome, e.g., fever, increased erythrocyte sedimentation rate (ESR), […] (AP), induction of acute phase proteins and vasculitis.

Row | SMILES | % aEAE Inhibition (SJL/N female mice; 0.2 mg/kg p.o.) | % aEAE Inhibition (SJL/N female mice; 1 mg/kg p.o.) | % aEAE Inhibition (SJL/N female mice; 5 mg/kg p.o.) | Incidence (%) day 35 (DBA/1 male mice) | Mean score day 35 (DBA/1 male mice) | further results
1 | Cn1c(=O)c(C(=O)Nc2ccccc2)c(O)c2ccccc21 [A] | – | – | – | – | – | clearance (Cl) in comparison with roquinimex (Clearance in dogs): 800 fold
2 | CCN(C(=O)c1c(O)c2c(Cl)cccc2n(C)c1=O)c1ccccc1 [Compound B, N-ethyl-N-phenyl-1,2-dihydro-4-hydroxy-5-chloro-1-methyl-2-oxo-quinoline-3-carboxamide] | 74% | 98% | 96% | – | – | % aEAE Inhibition (SJL/N female mice; 0.04 mg/kg p.o.): 60%; % malformed foetuses (female rats; 6 mg/kg, route s.c.): 0^a) %; % malformed foetuses (female rats; 30 mg/kg, route s.c.): 1^a) %
3 | CCN(C(=O)c1c(O)c2c(OC)cccc2n(C)c1=O)c1ccccc1 [Compound C, N-ethyl-N-phenyl-1,2-dihydro-4-hydroxy-5-methoxy-1-methyl-2-oxo-quinoline-3-carboxamide] | 71% | 73% | 90% | – | – | % aEAE Inhibition (SJL/N female mice; 0.04 mg/kg p.o.): 48%
4 | CCN(C(=O)c1c(O)c2ccccc2n(C)c1=O)c1ccccc1 [Compound F, N-ethyl-N-phenyl-1,2-dihydro-4-hydroxy-1-methyl-2-oxo-quinoline-3-carboxamide, reference compound] | – | – | 63% | – | – | –
5 | CN(C(=O)c1c(O)c2c(Cl)cccc2n(C)c1=O)c1ccccc1 [Compound G, N-methyl-N-phenyl-1,2-dihydro-4-hydroxy-5-chloro-1-methyl-2-oxo-quinoline-3-carboxamide] | – | – | – | – | – | % malformed foetuses (female rats; 6 mg/kg, route s.c.): 37^a) %
6 | CCN(C(=O)c1c(O)c2c(Br)cccc2n(C)c1=O)c1ccccc1 [D, N-ethyl-N-phenyl-1,2-dihydro-4-hydroxy-5-bromo-1-methyl-2-oxo-quinoline-3-carboxamide] | – | – | – | 30% | 0.4 | –
7 | CCN(C(=O)c1c(O)c2c3c(ccc2n(C)c1=O)OCO3)c1ccccc1 [E, N-ethyl-N-phenyl-1,2-dihydro-4-hydroxy-5,6-methylenedioxy-1-methyl-2-oxo-quinoline-3-carboxamide] | – | – | – | 10% | 0.1 | –
8 | CN(C(=O)c1c(O)c2ccccc2n(C)c1=O)c1ccccc1 [Roquinimex, N-methyl-N-phenyl-1,2-dihydro-4-hydroxy-1-methyl-2-oxo-quinoline-3-carboxamide, reference compound] | 35% | 40% | 69% | 50% | 1.7 | inhibition of EAE in mice (SJL/N female mice; 5 mg/kg, treatment control): 70%; Beagle Pain Syndrome (BPS) (beagle dogs): induce the Beagle Pain Syndrome; % malformed foetuses (female rats; 10 mg/kg, route p.o.): 9^b) %; % malformed foetuses (female rats; 30 mg/kg, route p.o.): 30^b) %; teratogenic effect in the rat (female rats; result in words): teratogenic
